Reference: paper PMC8667045, “Into Deep Water: Optimizing BCL6 Inhibitors by Growing into a Solvated Pocket” (Journal of Medicinal Chemistry, 2021)
Values joined by “and” are separate entries in the source; they are usually repeats but may differ in a detail not shown here. Equal values may be shown once. Read-outs that look alike come from different tables or passages of the source.

Columns and labels:
[1] = target: T1, BCL6 BTB domain (Homo sapiens, UniProt P41182); assay: biochemical
Method: Supplementary experimental: protein production, purification and crystallography
3C protease cleavage site.
used without cleaving the tag, as a 6His was needed to bind to the anti-6His-Terbium antibody. For
For both plasmid constructs described above, transformed BL21-AI E. coli cells were grown in LB
carried out at 18 °C for 18 hours. Cells were harvested by centrifugation (5500 g for 30 minutes at 4
oC) and stored at -80 °C.
Cells were re-suspended in a buffer composed of 20 mM Tris pH 8, 250 mM NaCl, 1 mM MgCl2, 0.5
Cells were lysed by sonication followed by centrifugation at 21,000 g for 45 minutes at 4 °C. […]
The final protein was assessed for purity
and molar mass by SDS-PAGE and high-resolution mass spectrometry, respectively.
directly eluted from the HisTrap FF column without HRV-3C treatment, and submitted to Superdex75
gel filtration as described above. […]
2. Supplementary experimental: biological assay conditions
IC50 values were determined using
a sigmoidal four-parameter logistic fit equation.

[2] = target: T1, BCL6 BTB domain; assay: SPR assay, immobilised BCL6 BTB protein (Biacore T200); assay type: binding; design: made in house; host or cells: E. coli BL21-AI
[3] = Measured logD7.4; assay type: physicochemical; conditions: pH 7.4
[4] = tested on: OCI-Ly3; assay: 14 day cell viability assay (CellTiter Glo); assay type: cell-based; conditions: Homo sapiens, BCL6-low, 14 days of treatment
[5] = tested on: SU-DHL-4; assay: 14 day cell viability assay (CellTiter Glo); assay type: cell-based; conditions: Homo sapiens, BCL6-high, 14 days of treatment
[6] = tested on: OCI-Ly1; assay: 14 day cell viability assay (CellTiter Glo); assay type: cell-based; conditions: Homo sapiens, BCL6-high, 14 days of treatment
[7] = NMR solubility assay; assay type: physicochemical; conditions: HEPES buffer, 5% DMSO, room temperature
Method: 3. Supplementary experimental: physicochemical assays
The plate was then sealed and incubated at room temperature for 20 hours, without shaking. The plate was centrifuged again for 1 minute at […]
spectrometer equipped with a 5 mm TCI-CryoProbe. […]
deuterated solvent. […] All NMR data were acquired at the […]
contained 16k time-domain data points. Relaxation delay was set to 20 sec. […]

[8] = In vivo pharmacokinetic study in female Balb/c mice; conditions: mouse; for Cmax: blood
Method: 5. Supplementary experimental: in vivo PK and PD experiments
All procedures were in accordance with UK Home Office regulations under the Animals (Scientific […]
accordance with published guidelines17. Mice were allowed access to food and water ad libitum.
5.1In vivo pharmacokinetic studies
All experiments were conducted in accordance with the UKCC guidelines for animal experimentations17. Animals were adapted to laboratory conditions for at least 1 week prior to dosing and were allowed food and water ad libitum. CCT369347 (25) was administered iv or po (mouse, 0.1 mL/10 g in 10% DMSO, 5% tween 20 in saline); Blood samples were collected in […]
collection together with a standard curve and quality controls spiked in control blood. Samples were reconstituted in a Water:MeOH mixture containing internal standard as previously described […]
Following centrifugation, extracts were analyzed by multiple reaction monitoring of precursor and product ions by ESI-LCMS/MS on either a Waters (Milford, MA, USA) Xevo TQ-S or Sciex (Framingham, MA, USA) QTrap6500 following gradient separation with 0.1% […]
Quantitation was carried out with an external calibration. Quality controls were […]
Pharmacokinetic parameters were derived from noncompartmental analysis using Phoenix Pharsight. Non compartmental analysis (model 200

[9] = Protein binding by equilibrium dialysis; assay type: in vitro ADME, mouse
[10] = tested on: MM.1S; assay: 14 day cell viability assay (CellTiter Glo); assay type: cell-based; conditions: Homo sapiens, MM1.S; BCL6-low, 14 days of treatment
[11] = tested on: SU-DHL-6; assay: 14 day cell viability assay (CellTiter Glo); assay type: cell-based; conditions: Homo sapiens, BCL6-high, 14 days of treatment
[12] = PAMPA passive permeability pH 7.4; conditions: pH 7.4, passive permeability Pe
[13] = female, Balb/c, whole blood, iv, 1 mg/kg, IV 1 mg/kg, individual animals
[14] = female, Balb/c, whole blood, po, 5 mg/kg, PO 5 mg/kg, individual animals
[15] = IV 1 mg/kg, individual animals, 1 mg/kg
[16] = PO 5 mg/kg, individual animals, 5 mg/kg

Question: With `Cn1c(=O)cc(NC(C)(C)c2ncc(C3CC3)cn2)c2cc(Nc3ccnc(Cl)c3C#N)ccc21` [Compound 25, 2-Chloro-4-((4-((2-(5-cyclopropylpyrimidin-2-yl)propan-2-yl)amino)-1-methyl-2-oxo-1,2-dihydroquinolin-6-yl)amino)nicotinonitrile] as the compound, how does the IC50 ([1]; BCL6 TR-FRET Geo Mean IC50, geometric mean of n replicates, supplement) read?
Answer: The IC50 was 30 nM.

Question: And the IC50 ([1]; TR-FRET IC50 individual replicates, single replicates, italic values used 10nM BCL6, otherwise 1nM BCL6)?
Answer: Its IC50 is 40 nM and 20 nM (2×) and 30 nM (2×).

Question: And the “BCL6 TR-FRET pIC50 mean” value ([1]; mean of n replicates)?
Answer: Its value is 7.58 and 7.583.

Question: And the IC50 ([1]; read-out: BCL6 TR-FRET Geo Mean IC50, geometric mean of n replicates, supplement)?
Answer: The IC50 was 26.1 nM.

Question: And the Kd ([2]; individual runs, Langmuir plot, 1:1 binding model, read-out: SPR KD)?
Answer: Its Kd is 277 nM and 282 nM and 198 nM and 201 nM.

Question: And the Kd ([2]; mean of four runs, read-out: SPR KD mean value)?
Answer: The Kd was 236 nM.

Question: What about the “SPR pKd” value ([2]; mean, +/- SEM where printed) of the same compound?
Answer: The value was 6.63.

Question: And the logD [3]?
Answer: Its logD is 2.7.

Question: And the GI50 [4]?
Answer: The GI50 was > 10000 nM.

Question: What about the GI50 [5] of the same compound?
Answer: The GI50 was 3450 nM.

Question: What about the GI50 [6] of the same compound?
Answer: Its GI50 is 1680 nM.

Question: What about the solubility at 20 h [7] of the same compound?
Answer: The solubility at 20 h was 30 µM and 29 µM.

Question: What about the clearance ([8]; female, Balb/c, whole blood, iv, 1 mg/kg, 1 mg kg^–1 i.v., mean, read-out: clearance (CL)) of the same compound?
Answer: The clearance was 24 mL/min/kg.

Question: And the Cmax [8, 13]?
Answer: Its Cmax is 443 nM.

Question: What about the AUC(0-inf) [8, 13] of the same compound?
Answer: The AUC(0-inf) was 1.38 µM·h.

Question: And the AUC(0-t) [8, 13]?
Answer: Its AUC(0-t) is 1.28 µM·h.

Question: What about the clearance ([8]; female, Balb/c, whole blood, iv, 1 mg/kg, IV 1 mg/kg, individual animals, read-out: CL) of the same compound?
Answer: Its clearance is 24.9 mL/min/kg.

Question: What about the Tmax ([8]; female, Balb/c, whole blood, iv, 1 mg/kg, IV 1 mg/kg, individual animals, read-out: Tmax) of the same compound?
Answer: Its Tmax is 0.08 h.

Question: What about the Vd ([8]; female, Balb/c, whole blood, iv, 1 mg/kg, IV 1 mg/kg, individual animals, read-out: Vss) of the same compound?
Answer: Its Vd is 9.43 L/kg.

Question: And the Cmax [8, 14]?
Answer: The Cmax was 347 nM.

Question: And the AUC(0-inf) [8, 14]?
Answer: Its AUC(0-inf) is 1.44 µM·h.

Question: And the AUC(0-t) [8, 14]?
Answer: Its AUC(0-t) is 1.35 µM·h.

Question: And the Tmax ([8]; female, Balb/c, whole blood, po, 5 mg/kg, PO 5 mg/kg, individual animals, read-out: Tmax)?
Answer: Its Tmax is 2 h.

Question: And the bioavailability ([8]; female, Balb/c, whole blood, po, 5 mg kg^–1 p.o. vs 1 mg kg^–1 i.v.)?
Answer: The bioavailability was 29%.

Question: And the “toxicity in PK study” value ([8]; 1 mg kg^–1 i.v. and 5 mg kg^–1 p.o.)?
Answer: The value was “no toxicity was observed”.

Question: What about the Cmax [8, 15] of the same compound?
Answer: Its Cmax is 521 nM and 471 nM.

Question: What about the AUCINF [8, 15] of the same compound?
Answer: Its AUCINF is 1.45 µM·h and 1.416 µM·h.

Question: And the AUClast [8, 15]?
Answer: The AUClast was 1.395 µM·h and 1.344 µM·h.

Question: And the CL [8, 15]?
Answer: Its CL is 23.7 mL/min/kg and 24.2 mL/min/kg.

Question: What about the HL_Lambda_z [8, 15] of the same compound?
Answer: Its HL_Lambda_z is 7.99 h and 5.93 h and 6.83 h.

Question: And the Vss [8, 15]?
Answer: The Vss was 6.96 L/kg and 7.81 L/kg.

Question: And the Cmax [8, 16]?
Answer: The Cmax was 382 nM and 427 nM.

Question: And the AUCINF [8, 16]?
Answer: The AUCINF was 1.848 µM·h and 1.279 µM·h.

Question: And the AUClast [8, 16]?
Answer: Its AUClast is 1.534 µM·h and 1.233 µM·h.

Question: What about the HL_Lambda_z [8, 16] of the same compound?
Answer: Its HL_Lambda_z is 1.33 h and 2.12 h and 1.14 h.

Question: What about the Tmax [8, 16] of the same compound?
Answer: The Tmax was 1 h.

Question: And the “free in mouse plasma” value [9]?
Answer: Its value is 1.3%.

Question: And the GI50 [10]?
Answer: Its GI50 is > 10000 nM.

Question: And the GI50 [11]?
Answer: The GI50 was 2550 nM.

Question: And the PAMPA7.4 [12]?
Answer: Its PAMPA7.4 is 35 x10^-6 cms^-1.
